Converted amounts (≈) assume the structure as drawn.
Assays:
[1] = tested on: Staphylococcus aureus (ATCC 29213); test: Glucose consumption susceptibility test, blood culture diluted in MHB with glucose (Example 1); format: cell-based; set-up: glucose concentration, t = 0 / glucose concentration, t = 60 / glucose concentration, t = 120 / glucose concentration, t = 180 / glucose concentration, t = 240 / dC/dT (rate of change in glucose concentration): unit not given here; settings: for F = the rate of change in glucose concentration in relation to the reference / dC/dT (rate of change in glucose concentration) / glucose concentration, t = 0 / glucose concentration, t = 60 / glucose concentration, t = 120 / glucose concentration, t = 180 / glucose concentration, t = 240: S. aureus; for glucose concentration, t = 0: 0 minutes; for glucose concentration, t = 60: 60 minutes; for glucose concentration, t = 120: 120 minutes; for glucose concentration, t = 180: 180 minutes; for glucose concentration, t = 240: 240 minutes
How it was run: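 Glucose was measured by glucometer at 0, 60, 120, 180 and 240 min after 1:100 dilution of positive blood culture in cation-adjusted MHB containing 1.0 mg/mL glucose.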

[2] = tested on: Staphylococcus aureus ATCC 29213; settings: S.aureus, cited from earlier work; for MIC, EUCAST, range in parentheses: range obtained by EUCAST from ISO 20776-1: 2006; for MIC, EUCAST: reference value, Mueller-Hinton agar, incubation 18±2 h
[3] = tested on: Escherichia coli ATCC 25922; settings: E.coli, cited from earlier work
[4] = tested on: Enterococcus faecalis ATCC 29212; settings: E.faecalis, cited from earlier work
[5] = range obtained by EUCAST from ISO 20776-1: 2006
[6] = reference value, Mueller-Hinton agar, incubation 18±2 h, N/A = not susceptible

## CO[C@@]1(NC(=O)Cc2cccs2)C(=O)N2C(C(=O)O)=C(COC(N)=O)CS[C@@H]21 [Cefoxitin, cefoxitin]
[1]; antibiotic 0.25 μg/mL
  F = the rate of change in glucose concentration in relation to the reference: 91%
  dC/dT (rate of change in glucose concentration): 31
  glucose concentration, t = 0: 143
  glucose concentration, t = 60: 152
  glucose concentration, t = 120: 132
  glucose concentration, t = 180: 91
  glucose concentration, t = 240: 33
[1]; antibiotic 0.5 μg/mL
  F = the rate of change in glucose concentration in relation to the reference: 96%
  dC/dT (rate of change in glucose concentration): 32
  glucose concentration, t = 0: 144
  glucose concentration, t = 60: 155
  glucose concentration, t = 120: 130
  glucose concentration, t = 180: 91
  glucose concentration, t = 240: 32
[1]; antibiotic 1 μg/mL
  F = the rate of change in glucose concentration in relation to the reference: 82%
  dC/dT (rate of change in glucose concentration): 28
  glucose concentration, t = 0: 147
  glucose concentration, t = 60: 155
  glucose concentration, t = 120: 133
  glucose concentration, t = 180: 100
  glucose concentration, t = 240: 40
[1]; antibiotic 2 μg/mL
  F = the rate of change in glucose concentration in relation to the reference: 72%
  dC/dT (rate of change in glucose concentration): 24
  glucose concentration, t = 0: 141
  glucose concentration, t = 60: 146
  glucose concentration, t = 120: 143
  glucose concentration, t = 180: 98
  glucose concentration, t = 240: 61
[1]; antibiotic 4 μg/mL
  F = the rate of change in glucose concentration in relation to the reference: 16%
  dC/dT (rate of change in glucose concentration): 6
  glucose concentration, t = 0: 142
  glucose concentration, t = 60: 150
  glucose concentration, t = 120: 143
  glucose concentration, t = 180: 139
  glucose concentration, t = 240: 139
[1]; antibiotic 8 μg/mL
  F = the rate of change in glucose concentration in relation to the reference: 24%
  dC/dT (rate of change in glucose concentration): 8
  glucose concentration, t = 0: 136
  glucose concentration, t = 60: 157
  glucose concentration, t = 120: 160
  glucose concentration, t = 180: 141
  glucose concentration, t = 240: 149
[1]; antibiotic 16 μg/mL
  F = the rate of change in glucose concentration in relation to the reference: 22%
  dC/dT (rate of change in glucose concentration): 8
  glucose concentration, t = 0: 140
  glucose concentration, t = 60: 157
  glucose concentration, t = 120: 152
  glucose concentration, t = 180: 142
  glucose concentration, t = 240: 142
[1]; antibiotic 32 μg/mL
  F = the rate of change in glucose concentration in relation to the reference: 27%
  dC/dT (rate of change in glucose concentration): 9
  glucose concentration, t = 0: 145
  glucose concentration, t = 60: 154
  glucose concentration, t = 120: 145
  glucose concentration, t = 180: 136
  glucose concentration, t = 240: 139
[1]; Staphylococcus aureus, ATCC29213, S.aureus, 80% threshold of reference rate of change, 60 to 180 minutes, read-out: MIC, Measured
  MIC: 2 µg/mL (≈ 4.68 µM)
[2]
  MIC, EUCAST, range in parentheses: (1-4) ug/mL
  MIC, EUCAST: 2 µg/mL (≈ 4.68 µM)
[3]; [5]
  MIC, EUCAST, range in parentheses: (2-8) ug/mL
[3]; [6]
  MIC, EUCAST: 4 µg/mL (≈ 9.36 µM)

## CN[C@H](CC(C)C)C(=O)N[C@H]1C(=O)N[C@@H](CC(N)=O)C(=O)N[C@H]2C(=O)N[C@H]3C(=O)N[C@H](C(=O)N[C@H](C(=O)O)c4cc(O)cc(O)c4-c4cc3ccc4O)[C@H](O)c3ccc(c(Cl)c3)Oc3cc2cc(c3O[C@@H]2O[C@H](CO)[C@@H](O)[C@H](O)[C@H]2O[C@H]2C[C@](C)(N)[C@H](O)[C@H](C)O2)Oc2ccc(cc2Cl)[C@H]1O [Vancomycin, vancomycin]
[1]; antibiotic 0.25 μg/mL
  F = the rate of change in glucose concentration in relation to the reference: 75%
  dC/dT (rate of change in glucose concentration): 25
  glucose concentration, t = 60: 142
  glucose concentration, t = 120: 133
  glucose concentration, t = 180: 92
  glucose concentration, t = 240: 42
[1]; antibiotic 0.5 μg/mL
  F = the rate of change in glucose concentration in relation to the reference: 84%
  dC/dT (rate of change in glucose concentration): 28
  glucose concentration, t = 60: 156
  glucose concentration, t = 120: 142
  glucose concentration, t = 180: 100
  glucose concentration, t = 240: 51
[1]; antibiotic 1 μg/mL
  F = the rate of change in glucose concentration in relation to the reference: 96%
  dC/dT (rate of change in glucose concentration): 32
  glucose concentration, t = 60: 161
  glucose concentration, t = 120: 140
  glucose concentration, t = 180: 97
  glucose concentration, t = 240: 51
[1]; antibiotic 2 μg/mL
  F = the rate of change in glucose concentration in relation to the reference: 88%
  dC/dT (rate of change in glucose concentration): 30
  glucose concentration, t = 60: 160
  glucose concentration, t = 120: 143
  glucose concentration, t = 180: 101
  glucose concentration, t = 240: 53
[1]; antibiotic 4 μg/mL
  F = the rate of change in glucose concentration in relation to the reference: 39%
  dC/dT (rate of change in glucose concentration): 13
  glucose concentration, t = 60: 157
  glucose concentration, t = 120: 147
  glucose concentration, t = 180: 131
  glucose concentration, t = 240: 107
[1]; antibiotic 8 μg/mL
  F = the rate of change in glucose concentration in relation to the reference: 6%
  dC/dT (rate of change in glucose concentration): 2
  glucose concentration, t = 60: 150
  glucose concentration, t = 120: 150
  glucose concentration, t = 180: 146
  glucose concentration, t = 240: 149
[1]; antibiotic 16 μg/mL
  F = the rate of change in glucose concentration in relation to the reference: 7%
  dC/dT (rate of change in glucose concentration): 3
  glucose concentration, t = 60: 157
  glucose concentration, t = 120: 153
  glucose concentration, t = 180: 152
  glucose concentration, t = 240: 149
[1]; antibiotic 32 μg/mL
  F = the rate of change in glucose concentration in relation to the reference: 13%
  dC/dT (rate of change in glucose concentration): 5
  glucose concentration, t = 60: 157
  glucose concentration, t = 120: 140
  glucose concentration, t = 180: 148
  glucose concentration, t = 240: 146
[2]
  MIC, EUCAST, range in parentheses: (0.5-2) ug/mL
  MIC, EUCAST: 1 µg/mL (≈ 0.69 µM)
[4]; [5]
  MIC, EUCAST, range in parentheses: (1-4) ug/mL
[4]; [6]
  MIC, EUCAST: 2 µg/mL (≈ 1.38 µM)

— patent US20200370087A1, “METHOD FOR DETERMINING MICROBIAL SUSCEPTIBILITY TO ANTIBIOTIC AGENTS” (Ascilion AB, priority 2017, published 2020)
